Test results published in patent publication US7402683B2, “Cinnamic acid amides” (Bayer HealthCare AG, priority 2002, dated 2008).

Legend:
[1] = system: Haemophilus influenzae Spain 7; experiment: Determination of the minimum inhibitory concentration (MIC), liquid dilution test; assay type: cell-based; details: BHI broth plus 20% bovine serum, 10 μg/ml hemin and 1% Isovitale, 37° C., 18-24 hours, 8-10% CO2
Method: (§1) Determination of the Minimum Inhibitory Concentration (MIC):
(§2) The MIC is determined in a liquid dilution test. Overnight cultures of the test organisms are diluted to a cell count of 10^5 organisms per ml in Isosensitest medium (Difco, Irvine, USA) and are incubated with dilutions of the test substances (1:2 dilution stages). Exceptions are the tests with S. pneumoniae G9A, which are conducted in BHI broth (Difco) plus 20% bovine serum, and with H. influenzae, which are conducted in BHI broth (Difco) plus 20% bovine serum, 10 μg/ml hemin and 1% Isovitale (Becton Dickinson, N.J., USA).
(§3) The cultures are incubated at 37° C. for 18-24 hours; S. pneumoniae and H. influenzae in the presence of 8-10% CO2.
(§4) The lowest concentration of each substance at which there is no longer any visible bacterial growth is defined as the MIC. The MICs in μmol/1 of some compounds of the invention against a series of test organisms are listed by way of example in the table below.

[2] = system: Staphylococcus aureus 133; experiment: as above; assay type: cell-based; details: Isosensitest medium, 10^5 organisms per ml, 37° C., 18-24 hours; lowest concentration with no visible bacterial growth
Method: as §1, §2, §3, §4

bacteria = details: described in the literature; cited from earlier work

SMILES | MIC Haemophilus influenzae Spain 7 [1] [μmol/1] | MIC Staphylococcus aureus 133 [2] [μmol/1] | antibacterial activity (bacteria)
CC(C)[C@H](NC(=O)C[C@H](NC(=O)/C=C/c1ccsc1)c1ccccc1)C(=O)[C@@H]1C(=O)NC(=O)[C@H]1C [Example 11] | 62.5 | 7.8 | –
CC(C)[C@H](NC(=O)CC(NC(=O)/C=C/c1ccc2c(c1)OCO2)c1ccc2c(c1)OCCO2)C(=O)[C@@H]1C(=O)NC(=O)[C@H]1C (stereo partly drawn) [Example 5, (2E)-3-(1,3-Benzodioxol-5-yl)-N-{1-(2,3-dihydro-1,4-benzodioxin-6-yl)-3-[((1S)-2-methyl-1-{[(3R,4S)-4-methyl-2,5-dioxo-3-pyrrolidinyl]carbonyl}propyl)amino]-3-oxopropyl}-2-propenamide] | 3.9 | 7.8 | –
C/C=C/C=C/C=C/C(=O)N[C@@H](CC(=O)N[C@H](C(=O)[C@@]1(O)C(=O)NC(=O)[C@H]1C)C(C)C)c1ccccc1 [moiramide C] | – | – | inactive
C/C=C/C=C/C(=O)N[C@@H](CC(=O)N[C@H](C(=O)[C@@H]1C(=O)NC(=O)[C@H]1C)C(C)C)c1ccccc1 [moiramide B] | – | – | having antibacterial activity
C[C@@H]1C(=O)N(N)C(=O)[C@H]1C(=O)[C@@H](NC(=O)C[C@H](NC(=O)/C=C/c1ccc(C#N)cc1)c1ccccc1)C1CCCC1 [Example 34, (2E)-N-((1S)-2-{N-[(1S)-2-((4S,3R)-1-amino-4-methyl-2,5-dioxoazolidin-3-yl)-1-cyclopentyl-2-oxoethyl]carbamoyl}-1-phenylethyl)-3-(4-cyanophenyl)prop-2-enamide] | 7.8 | <1 | –
C/C=C/C=C/C=C/C(=O)N[C@@H](CC(=O)N[C@H](C(=O)[C@@H]1C(=O)NC(=O)[C@H]1C)C(C)C)c1ccccc1 [andrimid] | – | – | having antibacterial activity

The next lines start with results.

MIC Haemophilus influenzae Spain 7 [1] [μmol/1] | MIC Staphylococcus aureus 133 [2] [μmol/1] | SMILES | antibacterial activity (bacteria)
31.3 | 7.8 | C[C@@H]1C(=O)NC(=O)[C@H]1C(=O)[C@@H](NC(=O)C[C@H](NC(=O)/C=C/c1ccc2c(c1)OCO2)c1ccccc1)C(C)(C)C [Example 2, (2E)-3-(1,3-Benzodioxol-5-yl)-N-{(1S)-3-[((1S)-2,2-dimethyl-1-{[(3R,4S)-4-methyl-2,5-dioxo-3-pyrrolidinyl]carbonyl}propyl)amino]-3-oxo-1-phenylpropyl}-2-propenamide] | –
15.6 | <1 | CC(C)[C@H](NC(=O)CC(NC(=O)/C=C/c1ccc2c(c1)OCO2)c1ccc2ccccc2c1)C(=O)[C@@H]1C(=O)NC(=O)[C@H]1C (some centres unmarked) [Example 92] | –
31.3 | 3.9 | CC(C)[C@H](NC(=O)C[C@H](NC(=O)/C=C/c1ccc2c(c1)OCO2)c1ccccc1)C(=O)[C@@H]1C(=O)NC(=O)[C@H]1C [Example 1, (2E)-3-(1,3-Benzodioxol-5-yl)-N-{(1S)-3-[((1S)-2-methyl-1-{[(3R,4S)-4-methyl-2,5-dioxo-3-pyrrolidinyl]carbonyl}propyl)amino]-3-oxo-1-phenylpropyl}-2-propenamide] | –
31.3 | <1 | C[C@@H]1C(=O)NC(=O)[C@H]1C(=O)[C@@H](NC(=O)C[C@H](NC(=O)/C=C/c1ccc2c(c1)OCO2)c1ccccc1)C1CCCC1 [Example 31, (2E)-3-(2H-Benzo[d]1,3-dioxolan-5-yl)-N-((1S)-2-{N-[(1S)-2-((4S,3R)-4-methyl-2,5-dioxoazolin-3-yl)-1-cyclopentyl-2-oxoethyl]carbamoyl}-1-phenylethyl)prop-2-enamide] | –
